Key:
PA14 = assay: Neonatal mouse lung infection model, lung histopathology; type: in vivo, mice
Description: We next assessed the morphological dynamics of PA14 infection in the presence of 2AA in a neonatal mouse lung infection model (Tang et al., Infection & Immunity 64:37-43, 1996), which is relevant to CF. A minimum inoculum of 1.5×10^5 PA14 cells/animal is 100% lethal in this model. Mice were treated with 2AA 4 days pre-infection, sacrificed at 24, 48, and 72 hr post-infection, and lung histopathology was assessed and compared to that of controls. PA14 infection alone produces rapidly developing inflammation that by 24 hr presents with red hepatization and development of lobular pneumonia. By 48 hours, the lung pathology includes most of the parenchyma with extensive formation of bacteria-filled necrotic foci (FIG. 12B). These observations are also consistent with our previous mortality studies using this lung model that indicate 100% mortality by 60 hr.

P. aeruginosa PA14 = assay: Mouse burn and infection (BI) model, survival; type: in vivo, mice
Description: Burn wound infection in mice can be established by subcutaneous or topical administration of the bacteria to the sites of the burn. […] Six-week old CD-1 male mice were used.
To induce infection, the mice were placed under general anesthesia via intraperitonial injection of 40 mg/kg Pentobarbital, the ventral surface was shaved, and a central skin fold elevated was simultaneously compressed from both sides for 5 seconds using two 2×2 cm metal blocks preheated to 95-100° C., to produce a non-lethal 5-8% full thickness burn with negligible focal necrosis of the underlying muscle or damage to underlying visceral organs. IP saline was administered for fluid resuscitation for ≧5% total body surface burns: avoiding vital structures, saline was injected into the left lower quadrant of the abdominal area of the anesthetized animal post-burn. This burn procedure was followed by mid-eschar inoculation of 100 μL of bacterial suspension containing ˜5×10^5 CFU. The animals were returned to their cages and provided mouse chow and water ad libitum. Animals typically recover from the anesthesia within 20 minutes post-administration. Criteria used to evaluate anesthesia recovery are state of alertness, mobility, and reaction to surrounding stimuli. Mice were monitored twice a day for symptoms and deaths, with increased monitoring every 6-8 hours during the period of greatest potential for infection and clinical disease.
The mouse full-thickness skin thermal injury infection model was used to test if 2AA restricts P, aeruginosa virulence. This model is predictable and reproducible; clinically relevant; and can lead to MODS and mortality. Briefly, a ˜15% total burn surface area (TBSA) thermal scalding injury is produced on the abdominal skin, leaving the underlying muscle intact, and the inoculum is delivered into the scald eschar. […]

P. aeruginosa = P. aeruginosa growth kinetics (spectrophotometric analysis at 600 nm); type: cell-based, Pseudomonas aeruginosa; details: 2 mM compound, followed over 26 hours at 600 nm (FIG. 4)
Text: P. aeruginosa strains include wild-type (PA14, see Rahme et al., Science 268:1899-1902, 1995); a PA14 mvfR mutant (Cao et al., Proc. Natl. Acad. Sci. USA 98:14613-14618, 2001); a pqsE deletion mutant, generated via pEX18Ap allelic replacement by using sucrose selection (Hoang et al., Gene 212:77-86, 1998), resulting in a 570-bp nonpolar deletion covering 65% of the sequence (Déziel et al. PNAS); and the pqsA (U479) TnphoA mutant obtained from the PA14 Transposon Insertion Mutant Database. Bacteria were grown in LB broth or on 1.5% Bacto-agar (Difco) LB plates. Freshly plated cells served as inoculum.
P. aeruginosa was grown in the presence of 2 mM of 2′-aminoacetophenone (2AA), 3′-aminoacetophenone (3AA), 4′-aminoacetophenone (4AA), or 2′-nitroacetophenone (2NA), or in the absence of any of these compounds (control). Bacterial growth was followed over 26 hours by spectrophotometric analysis at 600 nm.
Bacterial growth was also followed over 35 hours by spectrophotometric analysis at 600 nm.

P. aeruginosa cells = type: cell-based, Pseudomonas aeruginosa; details: 3 mM 2AA
[1] = probable ATP-binding component of ABC transporter

Structure (SMILES): CC(=O)c1ccccc1N [2AA, 2′-aminoacetophenone]
- development of lung inflammation in response to PA14 infection (PA14; 2AA 4 days pre-infection): greatly delayed rates of development of inflammation
- lung histopathology (PA14; PA14 infection 4 days post-2AA treatment, 48 hours (FIG. 12C)): Slight peribronchial infiltrate of inflammatory cells is present at 48 hours but no significant interstitial involvement
- protection (survival curves) (P. aeruginosa PA14; 10 mM solutions IV 4 days pre-BI (FIGS. 11A, 11B)): significantly greater
- time to succumb to PA14 lethality (P. aeruginosa PA14; 2AA injected in the scald eschar 1 hr post BI (FIG. 7)): significantly later
- survival (P. aeruginosa PA14; IP 2AA injection 3 days pre-BI): 50%
- survival (P. aeruginosa PA14; IP 2AA injection 8 days pre-BI): 50%
- mortality (P. aeruginosa PA14; IP 2AA injection up to 4 weeks pre-BI): 50%
- mortality (P. aeruginosa PA14; IP 500 μl of 20 mM, 2 days pre-BI, controls ~90%): 60%
- survival to PA14 infection (P. aeruginosa PA14; IV 100 μl of 10 mM, 4 days pre-BI): ~90%
- average survival after 5 days (P. aeruginosa PA14; IV tail vein 100 μl of 10 mM, four days prior to burn/infection, n=8-10, control 10% (FIG. 9)): 50%
- protection (survival) (P. aeruginosa PA14; single IP injection 500 μl of 20 mM, 6 hours pre-BI): no protection
- Bacterial growth (P. aeruginosa): only slightly retarded
- genes whose expression was altered more than 2 fold (P. aeruginosa cells; harvested at OD600 of 3.0): approximately 1250 genes
- genes downregulated (P. aeruginosa cells; more than 2 fold): 1056 genes
- genes upregulated (P. aeruginosa cells; more than 2 fold): 199 genes
- FOLD CHANGE PA3569 (P. aeruginosa cells; 3-hydroxyisobutyrate dehydrogenase mmsB): −2.6 fold
- FOLD CHANGE PA0999 (P. aeruginosa cells; 3-oxoacyl-[acyl-carrier-protein] synthase III pqsD): −5.2 fold
- FOLD CHANGE PA2570 (P. aeruginosa cells; PA-I galactophilic lectin): −4.5 fold
- FOLD CHANGE PA1001 (P. aeruginosa cells; anthranilate synthase component I, phnA): −6.2 fold
- FOLD CHANGE PA1002 (P. aeruginosa cells; anthranilate synthase component II, phnB): −4.9 fold
- FOLD CHANGE PA0905 (P. aeruginosa cells; carbon storage regulator csrA): −2.7 fold
- FOLD CHANGE PA1457 (P. aeruginosa cells; chemotaxis protein CheZ): −2.1 fold
- FOLD CHANGE PA2300 (P. aeruginosa cells; chitinase): −3.2 fold
- FOLD CHANGE PA0122 (P. aeruginosa cells; conserved hypothetical protein): −3.4 fold
- FOLD CHANGE PA0567 (P. aeruginosa cells; conserved hypothetical protein): −3.0 fold
- FOLD CHANGE PA1914 (P. aeruginosa cells; conserved hypothetical protein): −26.3 fold
- FOLD CHANGE PA2754 (P. aeruginosa cells; conserved hypothetical protein): −2.0 fold
- FOLD CHANGE PA4739 (P. aeruginosa cells; conserved hypothetical protein): −3.7 fold
- FOLD CHANGE PA3105 (P. aeruginosa cells; general secretion pathway protein D): −2.2 fold
- FOLD CHANGE PA3101 (P. aeruginosa cells; general secretion pathway protein G): −3.4 fold
- FOLD CHANGE PA3100 (P. aeruginosa cells; general secretion pathway protein H): −2.1 fold
- FOLD CHANGE PA3099 (P. aeruginosa cells; general secretion pathway protein I): −2.2 fold
- FOLD CHANGE PA3098 (P. aeruginosa cells; general secretion pathway protein J): −2.2 fold
- FOLD CHANGE PA3096 (P. aeruginosa cells; general secretion pathway protein L): −2.8 fold
- FOLD CHANGE PA3195 (P. aeruginosa cells; glyceraldehyde 3-phosphate dehydrogenase): −3.2 fold
- FOLD CHANGE PA3126 (P. aeruginosa cells; heat-shock protein IbpA): −2.5 fold
- FOLD CHANGE PA2194 (P. aeruginosa cells; hydrogen cyanide synthase HcnB): −3.5 fold
- FOLD CHANGE PA2195 (P. aeruginosa cells; hydrogen cyanide synthase HcnC): −2.9 fold
- FOLD CHANGE PA4205 (P. aeruginosa cells; hypothetical protein MexG): −6.1 fold
- FOLD CHANGE PA0997 (P. aeruginosa cells; hypothetical protein pqsB): −4.6 fold
- FOLD CHANGE PA0998 (P. aeruginosa cells; hypothetical protein pqsC): −5.4 fold
- FOLD CHANGE PA1000 (P. aeruginosa cells; hypothetical protein pqsE): −4.3 fold
- FOLD CHANGE PA1216 (P. aeruginosa cells; hypothetical protein): −2.7 fold
- FOLD CHANGE PA1852 (P. aeruginosa cells; hypothetical protein): −2.3 fold
- FOLD CHANGE PA2031 (P. aeruginosa cells; hypothetical protein): −2.0 fold
- FOLD CHANGE PA2134 (P. aeruginosa cells; hypothetical protein): −2.5 fold
- FOLD CHANGE PA2172 (P. aeruginosa cells; hypothetical protein): −2.4 fold
- FOLD CHANGE PA2173 (P. aeruginosa cells; hypothetical protein): −2.3 fold
- FOLD CHANGE PA2274 (P. aeruginosa cells; hypothetical protein): −3.7 fold
- FOLD CHANGE PA2328 (P. aeruginosa cells; hypothetical protein): −4.5 fold
- FOLD CHANGE PA2330 (P. aeruginosa cells; hypothetical protein): −11.7 fold
- FOLD CHANGE PA2331 (P. aeruginosa cells; hypothetical protein): −10.9 fold
- FOLD CHANGE PA2486 (P. aeruginosa cells; hypothetical protein): −2.3 fold
- FOLD CHANGE PA3031 (P. aeruginosa cells; hypothetical protein): −3.1 fold
- FOLD CHANGE PA3370 (P. aeruginosa cells; hypothetical protein): −2.2 fold
- FOLD CHANGE PA3371 (P. aeruginosa cells; hypothetical protein): −2.1 fold
- FOLD CHANGE PA3691 (P. aeruginosa cells; hypothetical protein): −7.0 fold
- FOLD CHANGE PA4917 (P. aeruginosa cells; hypothetical protein): −2.1 fold
- FOLD CHANGE PA3570 (P. aeruginosa cells; methylmalonate-semialdehyde dehydrogenase): −2.9 fold
- FOLD CHANGE PA4876 (P. aeruginosa cells; osmotically inducible lipoprotein OsmE): −2.6 fold
- FOLD CHANGE PA3186 (P. aeruginosa cells; outer membrane porin OprB precursor): −2.2 fold
- FOLD CHANGE PA1901 (P. aeruginosa cells; phenazine biosynthesis protein PhzC): −3.4 fold
- FOLD CHANGE PA1902 (P. aeruginosa cells; phenazine biosynthesis protein PhzD): −3.4 fold
- FOLD CHANGE PA1903 (P. aeruginosa cells; phenazine biosynthesis protein PhzE): −3.1 fold
- FOLD CHANGE PA2329 (P. aeruginosa cells; [1]): −9.8 fold
- FOLD CHANGE PA3187 (P. aeruginosa cells; [1]): −2.6 fold
- FOLD CHANGE PA4217 (P. aeruginosa cells; probable FAD-dependent monooxygenase phzS1): −5.4 fold
- FOLD CHANGE PA4209 (P. aeruginosa cells; probable O-methyltransferase phzM): −2.4 fold
- FOLD CHANGE PA4206 (P. aeruginosa cells; probable RND efflux membrane fusion protein precursor mexH): −5.9 fold
- FOLD CHANGE PA4207 (P. aeruginosa cells; probable RND efflux transporter mexI): −7.5 fold
- FOLD CHANGE PA2069 (P. aeruginosa cells; probable carbamoyl transferase): −2.5 fold
- FOLD CHANGE PA0996 (P. aeruginosa cells; probable coenzyme A ligase pqsA): −3.0 fold
- FOLD CHANGE PA2204 (P. aeruginosa cells; probable component of ABC transporter): −3.1 fold
- FOLD CHANGE PA2067 (P. aeruginosa cells; probable hydrolase): −2.5 fold
- FOLD CHANGE PA3812 (P. aeruginosa cells; probable iron-binding protein IscA): −5.9 fold
- FOLD CHANGE PA3813 (P. aeruginosa cells; probable iron-binding protein IscU): −6.7 fold
- FOLD CHANGE PA4208 (P. aeruginosa cells; probable outer membrane efflux protein precursor, OpmD): −6.8 fold
- FOLD CHANGE PA3692 (P. aeruginosa cells; probable outer membrane protein): −4.7 fold
- FOLD CHANGE PA3189 (P. aeruginosa cells; probable permease of ABC sugar transporter): −2.0 fold
- FOLD CHANGE PA2327 (P. aeruginosa cells; probable permease of ABC transporter): −4.9 fold
- FOLD CHANGE PA4210 (P. aeruginosa cells; probable phenazine biosynthesis protein phzA1): −3.3 fold
- FOLD CHANGE PA4211 (P. aeruginosa cells; probable phenazine biosynthesis protein phzB1): −2.9 fold
- FOLD CHANGE PA1904 (P. aeruginosa cells; probable phenazine biosynthesis protein): −3.6 fold
- FOLD CHANGE PA1905 (P. aeruginosa cells; probable pyridoxamine 5′-phosphate oxidase): −3.4 fold
- FOLD CHANGE PA4218 (P. aeruginosa cells; probable transporter): −5.3 fold
- FOLD CHANGE PA0355 (P. aeruginosa cells; protease pfpI): −2.7 fold
- FOLD CHANGE PA1456 (P. aeruginosa cells; two-component response regulator CheY): −2.3 fold
